Assay results published in patent US7238708B2, “Glucose sensor” (The Regents of the University of California, priority 2004, dated 2007).
Where “and” joins values, the source holds several entries; their conditions need not be identical. Equal values may be shown once. Read-outs that look alike come from different tables or passages of the source. Values belong to the compound of their own block, whether it stands above or below them.

Columns and labels:
hSGLT3 [1] = biological target: T1, hSGLT3 (Homo sapiens, UniProt Q9NY91); assay: two-electrode voltage-clamp, membrane potential of hSGLT3-expressing Xenopus oocytes; assay type: cell-based; settings: for effect on the membrane potential: concentrations as high as 100 mM; for membrane depolarization: 5 mM sugar, Na+ buffer pH 7.5, single oocyte; for effect on the membrane potential (qualitative): exposure of hSGLT3 oocytes to sugar; for inhibition of glucose-induced membrane depolarization: 250 μM phlorizin
T1 construct: The complete hSGLT3 clone was created by ligation of this PCR product to the 3′-end of hSGLT3 at the HindIII site; expressed in transfected cells; host or cells: Xenopus laevis oocytes injected with hSGLT3 cRNA
T1 sequence (Q9NY91 1-659): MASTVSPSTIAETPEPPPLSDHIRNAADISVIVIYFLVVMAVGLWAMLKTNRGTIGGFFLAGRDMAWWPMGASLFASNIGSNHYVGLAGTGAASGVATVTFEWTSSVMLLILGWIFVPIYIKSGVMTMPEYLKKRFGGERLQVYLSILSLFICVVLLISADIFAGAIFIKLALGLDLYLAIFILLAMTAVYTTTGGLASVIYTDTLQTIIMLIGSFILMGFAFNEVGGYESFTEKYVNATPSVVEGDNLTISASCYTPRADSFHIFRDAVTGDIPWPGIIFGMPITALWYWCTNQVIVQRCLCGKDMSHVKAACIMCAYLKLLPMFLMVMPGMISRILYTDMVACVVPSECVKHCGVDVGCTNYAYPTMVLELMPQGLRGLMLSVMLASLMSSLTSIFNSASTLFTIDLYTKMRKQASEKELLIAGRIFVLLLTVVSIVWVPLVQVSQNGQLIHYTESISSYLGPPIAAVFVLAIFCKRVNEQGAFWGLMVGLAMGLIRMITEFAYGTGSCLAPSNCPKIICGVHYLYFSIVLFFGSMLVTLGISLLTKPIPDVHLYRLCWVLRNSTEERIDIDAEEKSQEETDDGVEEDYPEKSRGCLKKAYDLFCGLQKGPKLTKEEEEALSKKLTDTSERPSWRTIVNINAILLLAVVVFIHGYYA
Protocol: (§1) Expression of hSGLT3 in oocytes. Stage VI oocytes from Xenopus laevis (Nasco, Fort Atkinson, Wis.) were defolliculated and injected with hSGLT3 cRNA and maintained at 18° C. in modified Barth's medium containing gentamycin (5 mg/ml) and penicillin (100 units/ml)/streptomycin (100 μg/ml). Each oocyte was injected with 20 ng of cRNA. Experiments were performed at 22±1° C., 3-9 days after the injection.
(§2) Two electrode-voltage clamp. Oocytes expressing SGLTs and control oocytes were placed in the chamber, impaled with the two electrodes and continuously superfused with the required medium (Loo et al. (1998) Proc. Natl. Acad. Sci. USA 95:7789-7794). Membrane potential changes and ionic currents were measured when adding different sugar concentrations. Sugar-specific changes in current were the difference between the values measured with sugar and the preceding value in buffer alone. Na^+ buffer contained 100 mM NaCl, 2 mM KCl, 1 mM CaCl2, 1 mM MgCl2 and 10 mM HEPES/tris (pH 7.5). In Na^+-free buffer, choline Cl replaced NaCl, and for the experiments at pH 5.0 HEPES/tris was replaced with MES/tris. In some experiments at low pH we simultaneously recorded the intracellular pH of the oocyte using the fluorescent dye BCECF-AM (15, 16). The apparent affinity (K0.5) and apparent maximal current (Imax) were calculated with the equation [1]=Imax. [S]/(K0.5+[S]), using the non-linear fitting method in SigmaPlot (SPSS, Chicago, Ill.) where [S] is the sugar concentration. The results are illustrated by experiments on single oocytes, but each was representative of at least 3-8 different oocytes.
(§3) Using the techniques described above, a two-electrode voltage-clamp was used to monitor hSGLT3's electrical properties in Xenopus oocytes. The oocytes were exposed to candidate compounds, and the depolarization of membrane potential was recorded.

hSGLT3 [2] = biological target: T1, hSGLT3; assay: sugar-induced currents in hSGLT3-expressing oocytes under voltage clamp; assay type: cell-based
Protocol: as §1, §2

SGLT1 [3] = biological target: T2, SGLT1 (Homo sapiens, UniProt P13866); set-up: host or cells: Xenopus laevis oocytes expressing hSGLT1; settings: cited from earlier work
T2 sequence (P13866 1-664): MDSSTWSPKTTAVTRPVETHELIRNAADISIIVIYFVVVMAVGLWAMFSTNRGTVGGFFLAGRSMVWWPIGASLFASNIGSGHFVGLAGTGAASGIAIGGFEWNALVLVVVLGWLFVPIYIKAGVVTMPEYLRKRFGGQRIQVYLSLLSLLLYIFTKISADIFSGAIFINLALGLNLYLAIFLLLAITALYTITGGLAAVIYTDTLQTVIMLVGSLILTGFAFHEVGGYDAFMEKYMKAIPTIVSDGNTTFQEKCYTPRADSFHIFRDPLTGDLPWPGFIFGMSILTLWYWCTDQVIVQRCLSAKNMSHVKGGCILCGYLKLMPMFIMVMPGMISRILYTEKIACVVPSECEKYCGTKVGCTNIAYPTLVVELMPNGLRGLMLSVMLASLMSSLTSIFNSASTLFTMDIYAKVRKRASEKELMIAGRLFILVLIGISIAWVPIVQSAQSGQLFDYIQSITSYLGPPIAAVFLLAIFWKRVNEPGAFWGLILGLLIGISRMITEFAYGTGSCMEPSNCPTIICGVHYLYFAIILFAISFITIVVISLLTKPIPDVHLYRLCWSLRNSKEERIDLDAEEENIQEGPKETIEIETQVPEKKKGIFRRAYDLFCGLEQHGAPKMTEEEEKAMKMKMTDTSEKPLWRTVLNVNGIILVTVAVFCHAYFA

pSGLT3 = biological target: T3, pSGLT3 (Sus scrofa, UniProt P31636); assay: ratio of positive ion uptake and sugar uptake in pSGLT3-expressing oocytes; assay type: cell-based, pig
T3 construct: expressed in transfected cells; host or cells: Xenopus laevis oocytes expressing pig SGLT3
T3 sequence (P31636 1-660): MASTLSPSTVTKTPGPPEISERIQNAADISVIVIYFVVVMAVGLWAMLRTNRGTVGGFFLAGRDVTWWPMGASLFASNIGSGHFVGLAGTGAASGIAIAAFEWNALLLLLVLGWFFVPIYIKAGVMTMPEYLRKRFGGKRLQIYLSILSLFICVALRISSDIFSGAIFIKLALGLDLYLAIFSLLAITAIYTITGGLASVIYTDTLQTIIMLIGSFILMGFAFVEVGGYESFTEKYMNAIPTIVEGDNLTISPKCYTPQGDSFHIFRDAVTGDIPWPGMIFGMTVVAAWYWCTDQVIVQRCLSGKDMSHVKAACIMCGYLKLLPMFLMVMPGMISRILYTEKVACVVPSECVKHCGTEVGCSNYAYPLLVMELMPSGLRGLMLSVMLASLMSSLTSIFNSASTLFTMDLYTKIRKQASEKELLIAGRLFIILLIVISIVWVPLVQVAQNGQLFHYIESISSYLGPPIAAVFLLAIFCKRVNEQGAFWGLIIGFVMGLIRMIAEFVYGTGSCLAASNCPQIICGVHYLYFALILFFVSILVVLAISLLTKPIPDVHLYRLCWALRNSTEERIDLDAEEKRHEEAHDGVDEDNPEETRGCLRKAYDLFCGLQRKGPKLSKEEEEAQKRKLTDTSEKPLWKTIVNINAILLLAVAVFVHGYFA
Protocol: (§4) Uptake experiments. Control oocytes or oocytes expressing a SGLT were superfused with a buffer solution containing either 100 mM NaCl or choline chloride at pH 7.5 or 5 while the plasma membrane potential was clamped at voltages between −50 and −110 mV. […] After the sugar was removed from the bathing solution the current returned to the baseline. The oocyte was washed, solubilized and glucose uptake determined using a scintillation spectrometer. Sugar-induced current was obtained by integrating the difference between baseline and the glucose-dependent current. The current, measured simultaneously with sugar uptake, was converted to its molar equivalent of univalent charge. [^14C]-glucose uptake in non-injected oocytes from the same batch of oocytes was used as a control.

hSGLT3 [4] = biological target: T1, hSGLT3; assay: simultaneous [14C]-glucose uptake and sugar-induced current in hSGLT3-expressing oocytes; assay type: cell-based
Protocol: as §1, §4

SGLT1 [5] = biological target: T2, SGLT1; assay: response of cells expressing SGLT1 to amino sugars; assay type: cell-based; set-up: expressed in transfected cells; host or cells: cells expressing SGLT1; Xenopus oocytes are inferred from 'Using the techniques described above'; settings: 30 mM
Protocol: as §2, with “The results are illustrated by experiments on single oocytes, but each was representative of at least 3-8 different oocytes.” left out
as §3

control cells = assay: response of control cells to amino sugars; assay type: cell-based, Xenopus laevis; settings: 30 mM
Protocol: as §2, with “The results are illustrated by experiments on single oocytes, but each was representative of at least 3-8 different oocytes.” left out
as §3

guinea pig ileum = assay: mechanical activity of guinea pig ileum
[6] = injected into the cerebrospinal fluid; cited from earlier work
[7] = test system: glucose-responsive neurons in the hypothalamus; settings: cited from earlier work
neuroendocrine cells = settings: Na+-dependent and phlorizin-sensitive manner; cited from earlier work
[8] = 2 mM glucose, -70 mV, Na+ buffer pH 5

effects on cells expressing SGLT1 (SGLT1 [5]): no effects
EC50 (hSGLT3 [1]; range printed with mixed units (nanomolar to micromolar), read-out: affinities to activate SGLT2): 0.0005 to 0.002 mM
SMILES: OC[C@H]1NC[C@H](O)[C@@H](O)[C@@H]1O [Deoxynojirimycin]
effects on control cells (control cells): no effects

effects on cells expressing SGLT1 (SGLT1 [5]): no effects
SMILES: CCN1C[C@H](O)[C@@H](O)[C@H](O)[C@H]1CO [N-(n-ethyl)deoxynojirimycin]
effects on control cells (control cells): no effects

effect on the membrane potential (hSGLT3 [1]): no effect
SMILES: OC[C@@H](O)[C@@H](O)[C@H](O)[C@H](O)CO [mannitol]

block of the responses to the amino sugars (hSGLT3 [1]): blocked
inhibition of glucose-induced membrane depolarization (hSGLT3 [1]): blocked
inhibition of glucose-induced membrane depolarization (hSGLT3 [1]; listed as Phlorizin): inhibited the membrane depolarization
SMILES: O=C(CCc1ccc(O)cc1)c1c(O)cc(O)cc1O[C@@H]1O[C@H](CO)[C@@H](O)[C@H](O)[C@H]1O [phlorizin]
block of the effect of glucose on mechanical activity of guinea pig ileum (guinea pig ileum): blocked
food intake [6]: increases food intake
glucose mediated increase in firing rate [7]: blocks

maximum current at saturating sugar concentration (Imax) (hSGLT3 [2]; -150 mV, Na+ buffer, n=5): 122±20 nA
EC50 (hSGLT3 [2]; -150 mV, Na+ buffer, n=5, read-out: apparent sugar affinity (K0.5) of current): 36 ± 6 mM
Imax (hSGLT3 [2]; pH 5 in Choline Cl, four oocytes): 2385±651 nA
Imax (hSGLT3 [2]; pH 5 in NaCl, four oocytes): 1725±99 nA
EC50 (hSGLT3 [2]; pH 5 in NaCl, four oocytes, read-out: K0.5): 41 ± 7 mM
membrane depolarization (hSGLT3 [1]): about 4 mV
SMILES: CO[C@H]1O[C@H](CO)[C@@H](O)[C@H](O)[C@H]1O [αMDG, α-methyl-D-glucopyranoside]
effect on the membrane potential (qualitative) (hSGLT3 [1]): reversibly depolarized the membrane potential
GLP-1 peptide secretion (neuroendocrine cells): stimulates GLP-1 peptide secretion

The next lines start with the compound.

SMILES: O=C[C@H](O)C[C@H](O)[C@H](O)CO [3-deoxy-D-glucose]
effect on the membrane potential (hSGLT3 [1]): failed to affect the membrane potential

SMILES: O=C(CO)[C@@H](O)[C@H](O)[C@H](O)CO [D-fructose]
effect on the membrane potential (hSGLT3 [1]): no effect

SMILES: O=C[C@H](O)[C@@H](O)[C@@H](O)[C@H](O)CO [D-galactose]
membrane depolarization (hSGLT3 [1]): no effect
effect on the membrane potential (hSGLT3 [1]): no effect

SMILES: O=C[C@H](O)[C@@H](O)[C@H](O)[C@H](O)CO [D-glucose]
activation energy (Ea) of glucose-induced current (hSGLT3 [2]; pH 5, presence and absence of Na+, 10, 22 and 28° C., Arrhenius plots): ~9 kcal/mol
depolarization of the membrane potential by phlorizin sensitive inward current (hSGLT3 [1]): up to 50 mV
membrane depolarization (hSGLT3 [1]): about 4 mV
ΔVmax (hSGLT3 [1]; 6 experiments): 26±9 mV
EC50 (hSGLT3 [1]; K0.5 (apparent affinity) of depolarization, 6 experiments, pH 7.5): 60 mM and ~60 mM
effect on the membrane potential (qualitative) (hSGLT3 [1]): reversibly depolarized the membrane potential
maximal depolarization (ΔVm) (hSGLT3 [1]; fit of a single oocyte (FIG. 4B)): 23 mV
ratio positive ion uptake / sugar uptake (SGLT1 [3]; Na+ at neutral pH, n=4): 2.1±0.04
ratio positive ion uptake / sugar uptake (SGLT1 [3]; acidic pH in H+, n=7): 2±0.1
ratio positive charge / sugar uptake (pSGLT3; acidic pH, n=6): 4.7±0.2
ratio positive charge / sugar uptake (pSGLT3; neutral pH, n=12): 2.1±0.1
cation uptake in hSGLT3 oocytes (hSGLT3 [4]; 2 mM D-glucose, 5 minutes, Na+ pH 5, n=5): 81 ± 7 pmol
D-glucose uptake in hSGLT3 oocytes (hSGLT3 [4]; 2 mM D-glucose, 5 minutes, Na+ pH 5, n=5, control oocytes 11±0.6): 11 ± 0.5 pmol
glucose uptake in hSGLT3 oocytes compared with control oocytes (hSGLT3 [4]; [8]): identical to that in control oocytes
sugar dependent current equivalent to univalent positive charge (hSGLT3 [4]; [8]): 81±7 pmol per 5 minutes
